Test results published in PMC7391456, “Targeting fibroblast activation protein (FAP): next generation PET radiotracers using squaramide coupled bifunctional DOTA and DATA^5m chelators” (EJNMMI Radiopharmacy and Chemistry, 2020).

Tests used:
[1] = Stability studies of gallium-68 complexes in media (EtOH, human serum, saline, PBS); format: physicochemical; settings: different media (summary statement)
Procedure: Gallium-68 stability studies against transmetallation (Fe, Cu, Ca, Mg), transchelation (EDTA, DTPA) as well as in HS, EtOH and saline (0.9% isotone NaCl-solution) were performed. 50 μl of the [^68Ga]Ga-DOTA.SA.FAPi labeling solution with > 95% radiochemical purity were added to 1 mL of the respective media. The measured time points for gallium-68 were 15, 30, 45, 60, 90, 120 min. HS (human male AB plasma, USA origin) was bought from Sigma Aldrich, PBS was purchased from Sigma Aldrich and 0.9% saline from B. Braun Melsungen AG (Melsungen, Germany).

[2] = biological target: T1, Human recombinant PREP (Homo sapiens, UniProt P48147); assay: PREP inhibition assay (IC50, N-succinyl-Gly-Pro-AMC substrate); format: biochemical; settings: N-succinyl-Gly-Pro-AMC 250 μM, pH 7.4, 15 min pre-incubation at 37 °C
T1 sequence (P48147 1-710): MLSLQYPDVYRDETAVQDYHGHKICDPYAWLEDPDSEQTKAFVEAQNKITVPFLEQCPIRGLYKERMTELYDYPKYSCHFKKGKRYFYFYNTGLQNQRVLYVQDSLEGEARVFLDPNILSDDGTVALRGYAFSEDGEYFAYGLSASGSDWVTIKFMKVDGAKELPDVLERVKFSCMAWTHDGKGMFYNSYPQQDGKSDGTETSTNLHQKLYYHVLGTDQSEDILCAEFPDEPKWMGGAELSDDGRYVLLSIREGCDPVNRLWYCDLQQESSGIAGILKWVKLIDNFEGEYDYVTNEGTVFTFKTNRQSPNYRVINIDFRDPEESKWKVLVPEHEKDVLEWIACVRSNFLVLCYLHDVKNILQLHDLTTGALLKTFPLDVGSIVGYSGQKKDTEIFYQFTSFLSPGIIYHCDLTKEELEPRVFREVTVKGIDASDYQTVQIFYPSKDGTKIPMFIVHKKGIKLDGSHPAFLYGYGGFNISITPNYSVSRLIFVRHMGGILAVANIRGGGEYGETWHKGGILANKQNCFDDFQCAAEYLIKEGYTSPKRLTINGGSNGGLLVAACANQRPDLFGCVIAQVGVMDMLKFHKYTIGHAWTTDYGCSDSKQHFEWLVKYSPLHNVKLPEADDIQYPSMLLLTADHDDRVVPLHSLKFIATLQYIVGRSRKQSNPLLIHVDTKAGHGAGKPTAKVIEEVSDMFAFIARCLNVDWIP
Source text: (§1) Enzymes: A gateway-entry clone for human FAP was purchased from Dharmacon (Accession number DQ891423) and the human secretion signal was replaced with the HoneyBee mellitin secretion signal. For transfection and expression of FAP in Sf9 insect cells, the C-terminal BaculoDirect kit from LifeTechnologies was used. The enzyme was purified from the supernatant of the insect cells using immobilized Ni-chelating chromatography (GE healthcare, Diegem, Belgium), followed by anion-exchange chromatography using a 1 mL HiTrap Q (GE healthcare, Diegem, Belgium). Human recombinant PREP was expressed in BL21(DE3) cells and purified using immobilized Co-chelating chromatography (GE healthcare) followed by anion-exchange chromatography on a 1 ml Mono Q column (GE healthcare).
(§2) Eight concentrations of inhibitors were tested. The final DMSO concentration is kept constant during the experiment to exclude any effects. Inhibitors were pre-incubated with the enzyme for 15 min at 37 °C, afterwards the substrate was added and the velocities of AMC release were measured kinetically at λex = 380 nm, λem = 465 nm for at least 10 min at 37 °C. The Infinite 200 (Tecan Group Ltd.) micro-titer plate reader and the Magellan software were used for measurement and data processing, respectively.
(§3) The data were fitted using a non-linear fit model in GraFit 7 software, according to the following equation: y=range/1+x/IC50^s where y is the value of the residual enzymatic activity compared to a non-inhibited sample, x is the final inhibitor concentration in the assay, s is the slope factor and the IC50 is the half maximal inhibitory concentration.

[3] = biological target: T2, human FAP (Homo sapiens, UniProt Q12884); assay: FAP inhibition assay (IC50, Z-Gly-Pro-AMC substrate); format: biochemical
T2 construct: the human secretion signal was replaced with the HoneyBee mellitin secretion signal; HoneyBee mellitin secretion signal (replaces the native signal-anchor) (N); C-terminal tag of the BaculoDirect C-term kit (C); made in house; host or cells: Sf9 insect cells (baculovirus); purified from the supernatant
T2 sequence (Q12884 26-760 limits assumed): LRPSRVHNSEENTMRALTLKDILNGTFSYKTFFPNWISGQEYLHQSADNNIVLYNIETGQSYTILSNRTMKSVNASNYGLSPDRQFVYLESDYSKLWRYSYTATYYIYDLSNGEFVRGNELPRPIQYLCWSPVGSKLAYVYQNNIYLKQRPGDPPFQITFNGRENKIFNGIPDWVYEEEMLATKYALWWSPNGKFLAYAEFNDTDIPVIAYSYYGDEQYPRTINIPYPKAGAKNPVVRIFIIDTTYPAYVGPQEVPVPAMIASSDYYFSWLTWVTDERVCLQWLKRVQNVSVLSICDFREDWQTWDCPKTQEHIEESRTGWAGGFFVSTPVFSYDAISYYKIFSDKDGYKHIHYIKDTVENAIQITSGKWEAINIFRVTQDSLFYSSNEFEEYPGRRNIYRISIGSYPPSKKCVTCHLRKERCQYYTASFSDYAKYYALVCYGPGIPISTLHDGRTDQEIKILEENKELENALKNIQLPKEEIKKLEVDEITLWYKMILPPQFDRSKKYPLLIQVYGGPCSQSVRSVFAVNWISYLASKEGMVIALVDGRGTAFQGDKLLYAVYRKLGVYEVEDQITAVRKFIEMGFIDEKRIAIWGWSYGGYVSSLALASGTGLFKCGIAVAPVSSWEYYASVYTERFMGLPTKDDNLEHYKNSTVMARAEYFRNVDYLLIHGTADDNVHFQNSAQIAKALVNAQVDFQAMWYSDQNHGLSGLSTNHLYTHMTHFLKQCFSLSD
Source text: as §1
as §2, with “was” for “is”, “any solvent” for “any”, “processing” for “processing,”
as §3

[4] = test system: FAP; parameters: method as in originally published value; settings: different FAP substrate (Ala-Pro-pNA); ref originally published value; cited from earlier work
[5] = test system: HT-1080 FAP; parameters: method as in Lindner et al. [2018]; settings: HT-1080 FAP tumor model, read from graphs; ref Lindner et al. [2018]; cited from earlier work
[6] = test system: MIA-PaCa-2; parameters: method as in Watabe et al. [2020]; settings: MIA-PaCa-2 tumor model, read from graphs; ref Watabe et al. [2020]; cited from earlier work
[7] = test system: PANC-1; parameters: method as in Watabe et al. [2020]; settings: read from graphs, ref Watabe et al. [2020], cited from earlier work
[8] = PANC-1 / MIA-PaCa-2, one value given

## N#C[C@@H]1CC(F)(F)CN1C(=O)CNC(=O)c1ccnc2ccc(OCCCCNc3c(NCCNC(=O)CN4CCN(CC(=O)O)CCN(CC(=O)O)CCN(CC(=O)O)CC4)c(=O)c3=O)cc12 [DOTA.SA.FAPi, (S)-2,2′,2″-(10-(2-((2-((2-((4-((4-((2-(2-cyano-4,4-difluoropyrrolidin-1-yl)-2-oxo-ethyl)carbamoyl)quinolin-6-yl)oxy)butyl)amino)-3,4-dioxocyclobut-1-en-1-yl)amino)ethyl)amino)-2-oxoethyl)-1,4,7,10-tetraazacyclododecane-1,4,7-triyl) triacetic acid]
[1]
  Stability in different media, intact conjugate: more than 95%
[2]
  IC50: 5400 ± 300 nM
[3]; Z-Gly-Pro-AMC 50 μM, pH 8, 15 min pre-incubation at 37 °C
  IC50: 0.9 ± 0.1 nM
[3]; ratio of the IC50 values for FAP and PREP
  Selectivity index (IC50 PREP / IC50 FAP): 6000

## N#C[C@@H]1CC(F)(F)CN1C(=O)CNC(=O)c1ccnc2ccc(OCCCN3CCN(C(=O)CN4CCN(CC(=O)[O-])CCN(CC(=O)[O-])CCN(CC(=O)[O-])CC4)CC3)cc12.[68Ga+3] [[^68Ga]Ga-FAPI-04]
[5]
  SUVmean(60 min p.i.) Heart: 0.16
  SUVmean(60 min p.i.) Kidney: 0.33
  SUVmean(60 min p.i.) Liver: 0.11
  SUVmean(60 min p.i.) Muscle: 0.06
  SUVmean(60 min p.i.) Tumor: 0.45
[6]
  SUVmean(60 min p.i.) Tumor: 0.11
[7]; [8]
  SUVmean(60 min p.i.) Heart: 0.17
  SUVmean(60 min p.i.) Kidney: 0.36
  SUVmean(60 min p.i.) Liver: 0.67
  SUVmean(60 min p.i.) Muscle: 0.03
[7]; PANC-1 tumor model
  SUVmean(60 min p.i.) Tumor: 0.14
